Laboratory results from US10947252B2, “Inhibitors of KEAP1-Nrf2 protein-protein interaction” (Janssen Pharmaceutica NV, priority 2018, dated 2021).

Legend:
[1] = biological target: Kelch domain of human KEAP1 (321-624 aa) (Homo sapiens (Human), UniProt Q14145); test: KEAP1 KELCH ThermoFluor binding assay; conditions: KEAP Kelch […], 1,8-ANS, pH 7.0, average of results obtained, read-out: Tf Kd;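 also: Ligand-induced melting temperature shift of E. coli-expressed KEAP1 Kelch protein, Kd estimated from concentration-response curves of ΔTm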
Kelch domain of human KEAP1 (321-624 aa), sequence (Q14145 321-624): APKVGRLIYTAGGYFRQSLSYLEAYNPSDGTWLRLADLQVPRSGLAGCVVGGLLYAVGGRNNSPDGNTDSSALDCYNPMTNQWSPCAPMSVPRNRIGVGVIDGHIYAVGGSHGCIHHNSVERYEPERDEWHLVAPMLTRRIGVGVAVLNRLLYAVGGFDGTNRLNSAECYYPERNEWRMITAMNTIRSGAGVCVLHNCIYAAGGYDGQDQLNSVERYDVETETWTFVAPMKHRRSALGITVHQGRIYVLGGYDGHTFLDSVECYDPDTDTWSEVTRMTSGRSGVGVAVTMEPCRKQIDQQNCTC
Excerpt: The shift in the melting point described as a ΔTm is proportional to the concentration and affinity of the ligand. The compound potency may be compared as a rank order of either ΔTm values at a single compound concentration or in terms of KD values, estimated from concentration response curves.
The protein was expressed in E. coli with 6His tag that was cleaved prior to receipt for use.
Protein (KEAP Kelch) and compound solutions were dispensed into black 384-well polypropylene PCR microplates (Abgene) and overlayed with silicone oil (1 μL, Fluka, type DC 200) to prevent evaporation.

[2] = tested on: Glo-Response ARE-luc2P HEK293 cell line; test: ARE luciferase reporter cell-based assay; conditions: Homo sapiens, HEK293, 24 h, average of results obtained;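 also: luciferase signal tracks Nrf2 activation of the ARE once compounds disrupt KEAP1-Nrf2 binding, read with One-Glo reagent, DMSO serving as low control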

SMILES | Kd [1] | EC50 [2]
Cc1ccc([C@@H](CC(=O)O)c2ccc3c(nnn3C3CC3)c2C)cc1CN1C[C@@]2(C)CCCN2c2ncccc2S1(=O)=O (single isomer, unassigned) [Example 223, (*R)-3-(1-Cyclopropyl-4-methyl-1H-benzo[d][1,2,3]triazol-5-yl)-3-(4-methyl-3-(((*R)-7a-methyl-5,5-dioxido-7a,8,9,10-tetrahydropyrido[2,3-f]pyrrolo[2,1-d][1,2,5]thiadiazepin-6(7H)-yl)methyl)phenyl)propanoic Acid] | 190 nM | 5460 nM
Cc1ccc(C(CC(=O)O)c2ccn3c(C4CC4)nnc3c2C)cc1CN1C[C@H]2CCCN2c2ncccc2S1(=O)=O (mixture of isomers) [Example 167, (R/S)-3-(3-Cyclopropyl-8-methyl-[1,2,4]triazolo[4,3-a]pyridin-7-yl)-3-(3-(((R)-5,5-dioxido-7a,8,9,10-tetrahydropyrido[2,3-f]pyrrolo[2,1-d][1,2,5]thiadiazepin-6(7H)-yl)methyl)-4-methylphenyl)propanoic Acid] | < 1 nM | 1140 nM
Cc1ccc([C@@H](c2ccn3c(C(F)(F)F)nnc3c2C)C(C)(C)C(=O)O)cc1CN1CC2(CCOCC2)Oc2nc(OCCN3CCCC3)c(C)cc2S1(=O)=O (single isomer, unassigned) [Example 370, (*S)-2,2-Dimethyl-3-(4-methyl-3-((8′-methyl-1′,1′-dioxido-7′-(2-(pyrrolidin-1-yl)ethoxy)-2,3,5,6-tetrahydrospiro[pyran-4,4′-pyrido[2,3-b][1,4,5]oxathiazepin]-2′(3′H)-yl)methyl)-4-methylphenyl)-2,2-dimethyl-3-(8-methyl-3-(trifluoromethyl)-[1,2,4]triazolo[4,3-a][pyridine-7-yl)propanoic Acid] | < 1 nM | 11.3 nM
Cc1ccc([C@H](c2ccn3c(C(F)F)nnc3c2C)C(C)(C)C(=O)O)nc1CN1CC2(CC2)Oc2nc(OCCN3CCCCC3)c(C)cc2S1(=O)=O (single isomer, unassigned) [Example 357, (*R)-3-(3-(difluoromethyl)-8-methyl-[1,2,4]triazolo[4,3-a]pyridin-7-yl)-2,2-dimethyl-3-(5-methyl-6-((8′-methyl-1′,1′-dioxido-7′-(2-(piperidin-1-yl)ethoxy)spiro[cyclopropane-1,4′-pyrido[2,3-b][1,4,5]oxathiazepin]-2′(3′H)-yl)methyl)pyridin-2-yl)propanoic Acid] | < 1 nM | 452 nM
Cc1ccc([C@H](c2ccn3c(C(F)(F)F)nnc3c2C)C(C)(C)C(=O)O)cc1CN1CC2(CCOCC2)Oc2nc(OCCN3CCCC3)c(C)cc2S1(=O)=O (single isomer, unassigned) [Example 609, (*R)-2,2-Dimethyl-3-(4-methyl-3-((8′-methyl-1′,1′-dioxido-7′-(2-(pyrrolidin-1-yl)ethoxy)-2,3,5,6-tetrahydrospiro[pyran-4,4′-pyrido[2,3-b][1,4,5]oxathiazepin]-2′(3′H)-yl)methyl)phenyl)-3-(8-methyl-3-(trifluoromethyl)-[1,2,4]triazolo[4,3-a]pyridin-7-yl)propanoic Acid] | 634 nM | > 20000 nM
Cc1ncc([C@@H](c2ccn3c(C(F)(F)F)nnc3c2C)C(C)(C)C(=O)O)cc1CN1C[C@@H]2CCCCN2c2ncc(C#N)cc2S1(=O)=O (single isomer, unassigned) [Example 655, (*R)-3-(5-(((*S)-3-Cyano-5,5-dioxido-7,7a,8,9,10,11-hexahydro-6H-dipyrido[2,1-d:2′,3′-f][1,2,5]thiadiazepin-6-yl)methyl)-6-methylpyridin-3-yl)-2,2-dimethyl-3-(8-methyl-3-(trifluoromethyl)-[1,2,4]triazolo[4,3-a]pyridin-7-yl)propanoic Acid] | < 1 nM | 138 nM
Cc1ccc([C@H](CC(=O)O)c2ccn3c(C(F)(F)F)nnc3c2C)cc1CN1CC2(CC2)Oc2ncc(Cl)cc2S1(=O)=O (single isomer, unassigned) [Example 195, (*S)-3-(3-((8′-Chloro-1′,1′-dioxidospiro[cyclopropane-1,4′-pyrido[2,3-b][1,4,5]oxathiazepin]-2′(3′H)-yl)methyl)-4-methylphenyl)-3-(8-methyl-3-(trifluoromethyl)-[1,2,4]triazolo[4,3-a]pyridin-7-yl)propanoic Acid] | < 1 nM | 5.7 nM
Cc1ccc([C@@H](c2ccn3c(C(F)F)nnc3c2C)C(C)(C)C(=O)O)cc1CN1CC2(CC2)Oc2nc(OCCN3CCCC3)c(C)cc2S1(=O)=O (single isomer, unassigned) [Example 375, (*S)-3-(3-(Difluoromethyl)-8-methyl-[1,2,4]triazolo[4,3-a]pyridine-7-yl)-2,2-dimethyl-3-(4-methyl-3-((8′-methyl-1′,1′-dioxido-7′-(2-(pyrrolidin-1-yl)ethoxy)spiro[cyclopropane-1,4′-pyrido[2,3-b][1,4,5]oxathiazepin]-2′(3′H)-yl)methyl)phenyl)propanoic Acid] | < 1 nM | 11.5 nM
Cc1ncc([C@H](c2ccc3c(nnn3C3CC3)c2C)C(C)(C)C(=O)O)cc1CN1CC2(COC2)Oc2ncccc2S1(=O)=O (single isomer, unassigned) [Example 612, (*S)-3-(1-Cyclopropyl-4-methyl-1H-benzo[d][1,2,3]triazol-5-yl)-3-(5-((1′,1′-dioxidospiro[oxetane-3,4′-pyrido[2,3-b][1,4,5]oxathiazepin]-2′(3′H)-yl)methyl)-6-methylpyridin-3-yl)-2,2-dimethylpropanoic Acid] | 61500 nM | 19900 nM
CCn1nnc2c(C)c([C@@H](CC(=O)O)c3ccc(C)c(CN4CC5(CC5)Oc5ncccc5S4(=O)=O)n3)ccc21 (single isomer, unassigned) [Example 245, (*R)-3-(6-((1′,1′-Dioxidospiro[cyclopropane-1,4′-pyrido[2,3-b][1,4,5]oxathiazepin]-2′(3′H)-yl)methyl)-5-methylpyridin-2-yl)-3-(1-ethyl-4-methyl-1H-benzo[d][1,2,3]triazol-5-yl)propanoic Acid] | < 1 nM | 140 nM
Cc1ccc([C@H](CC(=O)O)c2cc(OC3CC3)c3c(c2)nnn3C)cc1CN1C[C@H]2CCCN2c2ncccc2S1(=O)=O (single isomer, unassigned) [Example 5, (*S)-3-(7-Cyclopropoxy-1-methyl-1H-benzo[d][1,2,3]triazol-5-yl)-3-(3-(((R)-5,5-dioxido-7a,8,9,10-tetrahydropyrido[2,3-f]pyrrolo[2,1-d][1,2,5]thiadiazepin-6(7H)-yl)methyl)-4-methylphenyl)propanoic Acid] | 0.518 nM | 110 nM
CCn1nnc2c(C)c([C@@H](CC(=O)O)c3ccc(C)c(CN4CC5(COC5)Oc5ncccc5S4(=O)=O)n3)ccc21 (single isomer, unassigned) [Example 242, (*R)-3-(6-((1′,1′-Dioxidospiro[oxetane-3,4′-pyrido[2,3-b][1,4,5]oxathiazepin]-2′(3′H)-yl)methyl)-5-methylpyridin-2-yl)-3-(1-ethyl-4-methyl-1H-benzo[d][1,2,3]triazol-5-yl)propanoic Acid] | 1.8 nM | 110 nM
Cc1ccc([C@@H](CC(=O)O)c2ccc3c(nnn3CC3CC3)c2C)cc1CN1C[C@H]2CCCN2c2ncccc2S1(=O)=O (single isomer, unassigned) [Example 401, (*R)-3-(1-(Cyclopropylmethyl)-4-methyl-1H-benzo[d][1,2,3]triazol-5-yl)-3-(3-(((R)-5,5-dioxido-7a,8,9,10-tetrahydropyrido[2,3-f]pyrrolo[2,1-d][1,2,5]thiadiazepin-6(7H)-yl)methyl)-4-methylphenyl)propanoic acid] | < 1 nM | 2.7 nM
Cc1ccc([C@@H](CC(=O)O)c2ccn3c(C4CC4)nnc3c2C)cc1CN1C[C@H]2CCCN2c2ncccc2S1(=O)=O (single isomer, unassigned) [Example 169, (*R)-3-(3-Cyclopropyl-8-methyl-[1,2,4]triazolo[4,3-a]pyridin-7-yl)-3-(3-(((R)-5,5-dioxido-7a,8,9,10-tetrahydropyrido[2,3-f]pyrrolo[2,1-d][1,2,5]thiadiazepin-6(7H)-yl)methyl)-4-methylphenyl)propanoic Acid] | 1.2 nM | 5910 nM
Cc1ccc([C@H](c2ccn3c(C4CC4)nnc3c2C)C(C)(C)C(=O)O)cc1CN1CC2(COC2)Oc2ncccc2S1(=O)=O (single isomer, unassigned) [Example 620, (*R)-3-(3-Cyclopropyl-8-methyl-[1,2,4]triazolo[4,3-a]pyridin-7-yl)-3-(3-((1′,1′-dioxidospiro[oxetane-3,4′-pyrido[2,3-b][1,4,5]oxathiazepin]-2′(3′H)-yl)methyl)-4-methylphenyl)-2,2-dimethylpropanoic Acid] | < 1 nM | 7.87 nM
Cc1cnc2c(c1)S(=O)(=O)N(Cc1cc([C@@H](c3ccn4c(C(F)(F)F)nnc4c3C)C(C)(C)C(=O)O)ccc1C)CC1(CNC1)O2 (single isomer, unassigned) [Example 342, (*S)-2,2-Dimethyl-3-(4-methyl-3-((8′-methyl-1′,1′-dioxidospiro[azetidine-3,4′-pyrido[2,3-b][1,4,5]oxathiazepin]-2′(3′H)-yl)methyl)phenyl)-3-(8-methyl-3-(trifluoromethyl)-[1,2,4]triazolo[4,3-a]pyridin-7-yl)propanoic Acid] | < 1 nM | 5.6 nM
Cc1ncc([C@H](CC(=O)O)c2ccn3c(C(F)(F)F)nnc3c2C)cc1CN1CC2(CCOCC2)Oc2ncccc2S1(=O)=O (single isomer, unassigned) [Example 564, (*R)-3-(5-((1′,1′-Dioxido-2,3,5,6-tetrahydrospiro[pyran-4,4′-pyrido[2,3-b][1,4,5]oxathiazepin]-2′(3′H)-yl)methyl)-6-methylpyridin-3-yl)-3-(8-methyl-3-(trifluoromethyl)-[1,2,4]triazolo[4,3-a]pyridin-7-yl)propanoic Acid] | 323 nM | > 20000 nM
